The test system of one data set is Parkinson's disease. Nature of the data set: STEADY-PD III post-hoc analysis: isradipine exposure versus need for antiparkinson therapy and levodopa equivalent dose. Format: in vivo, human.
For a further data set, the target named is Cav1.3 (Homo sapiens, UniProt Q01668). Conditions: in vitro; read-out: IC50 for inhibition of calcium currents through Cav1.3 (converted); cited from earlier work.
Data set [1] is described as follows: population pharmacokinetic modeling of plasma isradipine in STEADY-PD III by tertile groups. To be noted: IR 5 mg twice daily; for CL/F: steady state; for Cave,ss: based on AUC24.
The next data set has as its system SNc DA neurons. Conditions: chronic treatment in vivo, cited from earlier work.
Data set [2] has as its system dopaminergic neurons in the striatum and substantia nigra. Conditions: 6-hydroxydopamine mouse model, cited from earlier work.
Setting [3] is: Middle CL/F, Middle AUC24 tertile.

SMILES strings stand for the structures.

Consider 1 compound from US11850243B2, “Dihydropyridine compositions and methods for treating neurological disorders” (Cavalon Therapeutics, Inc., priority 2021, dated 2023).

Sequence of Cav1.3 (Q01668 whole entry): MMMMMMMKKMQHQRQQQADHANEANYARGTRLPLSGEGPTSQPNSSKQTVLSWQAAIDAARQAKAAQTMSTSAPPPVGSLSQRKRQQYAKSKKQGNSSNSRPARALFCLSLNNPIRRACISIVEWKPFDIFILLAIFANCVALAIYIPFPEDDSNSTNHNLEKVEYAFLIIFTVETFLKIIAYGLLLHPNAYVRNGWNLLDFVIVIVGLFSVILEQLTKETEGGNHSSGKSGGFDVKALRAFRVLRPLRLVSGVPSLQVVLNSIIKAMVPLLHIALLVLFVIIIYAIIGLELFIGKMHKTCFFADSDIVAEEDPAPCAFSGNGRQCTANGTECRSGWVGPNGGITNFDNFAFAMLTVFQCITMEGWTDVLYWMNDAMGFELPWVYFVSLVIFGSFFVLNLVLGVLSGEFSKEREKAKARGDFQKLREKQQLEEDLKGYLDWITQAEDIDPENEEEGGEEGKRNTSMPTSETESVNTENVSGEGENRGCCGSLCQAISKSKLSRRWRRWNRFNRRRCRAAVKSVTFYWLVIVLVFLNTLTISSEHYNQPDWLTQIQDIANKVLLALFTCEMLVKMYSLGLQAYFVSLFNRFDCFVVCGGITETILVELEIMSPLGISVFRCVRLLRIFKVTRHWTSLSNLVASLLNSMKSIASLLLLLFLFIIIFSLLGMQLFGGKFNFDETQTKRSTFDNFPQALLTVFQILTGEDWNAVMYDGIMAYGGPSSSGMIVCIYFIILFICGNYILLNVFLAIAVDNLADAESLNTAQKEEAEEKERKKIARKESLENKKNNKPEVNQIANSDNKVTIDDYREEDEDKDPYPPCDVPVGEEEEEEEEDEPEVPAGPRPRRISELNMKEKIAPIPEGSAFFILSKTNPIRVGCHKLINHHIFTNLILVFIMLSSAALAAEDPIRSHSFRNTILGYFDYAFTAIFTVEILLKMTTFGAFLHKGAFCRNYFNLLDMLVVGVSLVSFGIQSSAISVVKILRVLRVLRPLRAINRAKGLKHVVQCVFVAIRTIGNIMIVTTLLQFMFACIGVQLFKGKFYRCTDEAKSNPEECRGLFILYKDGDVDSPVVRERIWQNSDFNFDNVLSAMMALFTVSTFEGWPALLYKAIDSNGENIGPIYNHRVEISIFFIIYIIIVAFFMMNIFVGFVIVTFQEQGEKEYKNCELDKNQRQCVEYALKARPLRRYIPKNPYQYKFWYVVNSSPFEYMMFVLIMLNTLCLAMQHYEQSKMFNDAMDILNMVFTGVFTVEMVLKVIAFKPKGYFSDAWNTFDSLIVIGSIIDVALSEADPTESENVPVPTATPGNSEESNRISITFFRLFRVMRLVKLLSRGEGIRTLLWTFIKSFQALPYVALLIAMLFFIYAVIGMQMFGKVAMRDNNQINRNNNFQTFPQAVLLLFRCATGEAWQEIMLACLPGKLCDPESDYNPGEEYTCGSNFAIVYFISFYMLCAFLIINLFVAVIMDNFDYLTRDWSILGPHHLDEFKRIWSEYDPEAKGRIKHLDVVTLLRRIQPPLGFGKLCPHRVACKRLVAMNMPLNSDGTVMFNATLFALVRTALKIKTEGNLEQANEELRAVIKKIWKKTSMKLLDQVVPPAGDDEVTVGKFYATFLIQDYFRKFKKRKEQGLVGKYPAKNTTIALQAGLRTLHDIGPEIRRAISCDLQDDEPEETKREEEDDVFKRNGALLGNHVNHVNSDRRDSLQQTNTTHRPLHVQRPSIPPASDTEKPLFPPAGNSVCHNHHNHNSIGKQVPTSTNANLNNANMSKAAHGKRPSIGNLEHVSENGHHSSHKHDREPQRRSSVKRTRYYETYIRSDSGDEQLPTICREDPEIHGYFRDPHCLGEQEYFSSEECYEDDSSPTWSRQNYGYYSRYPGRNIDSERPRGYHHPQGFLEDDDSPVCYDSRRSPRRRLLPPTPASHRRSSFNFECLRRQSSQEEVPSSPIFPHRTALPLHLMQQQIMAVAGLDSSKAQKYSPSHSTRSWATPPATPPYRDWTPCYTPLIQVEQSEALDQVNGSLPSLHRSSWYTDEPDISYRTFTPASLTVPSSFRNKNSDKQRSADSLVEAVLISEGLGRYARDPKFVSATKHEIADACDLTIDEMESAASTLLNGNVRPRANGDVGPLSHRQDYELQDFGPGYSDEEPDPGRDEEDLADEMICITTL
Sequence of Cav1.3 (P54284 whole entry partner): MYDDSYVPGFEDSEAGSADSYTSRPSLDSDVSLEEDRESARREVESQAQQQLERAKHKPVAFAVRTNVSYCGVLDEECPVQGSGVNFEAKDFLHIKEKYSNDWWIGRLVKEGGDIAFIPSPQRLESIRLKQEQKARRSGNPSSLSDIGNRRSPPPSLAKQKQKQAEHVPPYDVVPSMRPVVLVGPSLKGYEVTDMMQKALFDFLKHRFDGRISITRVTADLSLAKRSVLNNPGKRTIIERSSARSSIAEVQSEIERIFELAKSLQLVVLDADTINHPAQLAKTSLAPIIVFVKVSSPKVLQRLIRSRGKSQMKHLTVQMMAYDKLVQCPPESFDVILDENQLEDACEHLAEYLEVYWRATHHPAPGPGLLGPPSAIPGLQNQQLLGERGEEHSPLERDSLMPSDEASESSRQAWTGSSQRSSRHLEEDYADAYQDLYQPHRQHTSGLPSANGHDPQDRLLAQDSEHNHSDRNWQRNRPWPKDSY
Sequence of Cav1.3 (P54289 25-946 partner limits assumed): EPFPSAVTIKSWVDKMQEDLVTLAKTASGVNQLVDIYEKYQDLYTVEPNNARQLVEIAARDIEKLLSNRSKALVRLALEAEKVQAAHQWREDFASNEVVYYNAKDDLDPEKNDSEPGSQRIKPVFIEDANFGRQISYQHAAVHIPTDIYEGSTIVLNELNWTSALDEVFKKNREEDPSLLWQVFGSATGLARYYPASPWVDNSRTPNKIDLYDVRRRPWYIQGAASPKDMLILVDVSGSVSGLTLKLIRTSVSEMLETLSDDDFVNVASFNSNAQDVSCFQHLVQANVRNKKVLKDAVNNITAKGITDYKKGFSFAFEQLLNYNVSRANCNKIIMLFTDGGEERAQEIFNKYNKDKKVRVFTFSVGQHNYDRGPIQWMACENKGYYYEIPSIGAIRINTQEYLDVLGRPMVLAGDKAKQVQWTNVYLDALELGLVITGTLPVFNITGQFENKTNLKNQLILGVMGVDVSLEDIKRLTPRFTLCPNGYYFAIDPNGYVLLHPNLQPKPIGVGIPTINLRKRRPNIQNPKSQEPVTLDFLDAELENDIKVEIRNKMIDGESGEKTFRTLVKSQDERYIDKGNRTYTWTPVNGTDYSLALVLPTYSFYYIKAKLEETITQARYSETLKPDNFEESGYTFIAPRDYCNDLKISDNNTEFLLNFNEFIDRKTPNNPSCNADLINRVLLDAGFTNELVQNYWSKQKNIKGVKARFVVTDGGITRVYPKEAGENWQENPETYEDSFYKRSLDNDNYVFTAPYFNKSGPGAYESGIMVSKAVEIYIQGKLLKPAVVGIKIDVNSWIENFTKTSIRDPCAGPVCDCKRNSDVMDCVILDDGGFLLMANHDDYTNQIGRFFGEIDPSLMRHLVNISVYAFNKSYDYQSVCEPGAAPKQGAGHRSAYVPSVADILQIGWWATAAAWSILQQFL
Sequence of Cav1.3 (P54289 947-1103 partner limits assumed): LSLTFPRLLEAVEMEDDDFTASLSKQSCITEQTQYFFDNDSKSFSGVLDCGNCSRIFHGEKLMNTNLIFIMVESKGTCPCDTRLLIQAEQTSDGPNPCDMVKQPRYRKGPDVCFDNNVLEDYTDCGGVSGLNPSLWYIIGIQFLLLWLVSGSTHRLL

On to `COC(=O)C1=C(C)NC(C)=C(C(=O)OC(C)C)C1c1cccc2nonc12` (centres unmarked) [isradipine], for which, in the data set on Parkinson's disease (highest AUC24 exposure group vs placebo, 95% CI 0.45-0.97), the “HR for time to need therapy” value is listed as 0.66. The “decrease in risk of needing antiparkinson treatment” value with Parkinson's disease (trend per CL/F tertile decrement or AUC24 tertile increment, vs placebo, p for trend=0.02) turned out to be 13%. In addition, the “HR for time to first initiation of antiparkinson therapy” value with Parkinson's disease (trend per tertile, vs placebo, 95% CI:0.78-0.98) came out at 0.87. The concentration for half-maximal inhibition (IC50) at Cav1.3 was roughly 8.08 nM. Besides, in data set [1] (Fast CL/F, Low AUC24 tertile), the “Cmin,ss” value came to 0.56 ng/mL, the apparent clearance CL/F amounted to 477 L/h and the “Cave,ss” value came to 0.9 ng/mL. For the same compound, in data set [1] (setting [3]), the “Cmin,ss” value was 0.86 ng/mL, the apparent clearance (CL/F) amounted to 296 L/h and the “Cave,ss” value amounted to 1.4 ng/mL. In data set [1] (Slow CL/F, High AUC24 tertile), the “Cmin,ss” value is on record as 1.40 ng/mL, the CL/F is 195 L/h and the “Cave,ss” value was determined as 2.1 ng/mL. Also, in the data set with SNc DA neurons (SNc DA neurons), the “high basal rate of mitophagy” value is reported as “diminished” and the mitochondrial oxidant stress entry is reported as “significantly lowered”. In addition, in the data set on SNc DA neurons, the “cytosolic [Ca2+] in SNc DA neurons” value was “sustained reduction” and the “mitochondrial mass in SNc DA neurons” value is reported as “increased”. Also, the “plasma concentration required to inhibit neuronal death by 50% (IC50)” value in data set [2] (systemic administration, plasma concentration) was 5 to 7 ng/mL. The “protection of dopaminergic neurons in the striatum and substantia nigra” value in data set [2] (systemic administration) is “concentration-dependent protection”. Further, the “threshold plasma concentration for protection against neuronal death” value in data set [2] (inflection point in the concentration-response curve) was 1.5 to 2 ng/mL.
